One test relates to MDA-MB-231 cells. Description: MTT-based cell viability assay. As to conditions: for MTT-based relative viability: relative to cn = 1.00, peptide concentration not given, treated two days, OD 562 nm. Details: species or system human. As for the experimental part:
(§1) Using 96-well plates with approximately 2000 cells per well, an MTT-based metabolic activity assay was performed. The cells were treated with agents and incubated for two days. On the fourth day, they were stained with 0.5 mg/mL thiazolyl blue tetrazolium bromide (M5655, Sigma). The optical density, used to assess metabolic activity, was measured at 562 nm. For the EdU-based proliferation activity assay, the cells were seeded in 96-well plates at about 1000 cells per well. A fluorescence-based cell proliferation kit (Click-iT™, EdU Alexa Fluor™ 488 Imaging Kit; Thermo Fisher, Waltham, MA, USA) was used according to the manufacturer’s instructions.

For a further test, the system named is MDA-MB-436 cells. Briefly: MTT-based cell viability assay. The following applies: for MTT-based relative viability: relative to cn = 1.00, peptide concentration not given, treated two days, OD 562 nm. Details: species or system human. As for the experimental part: as §1
In a further test the test system is MCF7 cells. Description: MTT-based cell viability assay. Details: species or system human. How it is done: as §1
The next test deals with PANC1 PDAC cells. Briefly: MTT-based cell viability assay. How it is done: as §1
The next test deals with PANC198 PDAC cells. Briefly: MTT-based cell viability assay. As to conditions: PANC198 (PAN198). As for the experimental part: as §1
Test [1] deals with TT2 osteosarcoma cell line. Description: MTT-based cell viability assay. As to conditions: TT2 OS cells. As for the experimental part:
as §1

Test [2] has as its system 4T1.2 mammary tumor cells. Briefly: MTT-based cell viability assay. Also on record: species or system mouse. As for the experimental part:
as §1

Test [3] concerns human triple-negative breast cancer tissue. Briefly: Ex vivo cancer tissue assay. Type of test: cell-based. The following applies: 5 µM Cisplatin or Taxol with 25 µg/mL of P18; 48 and 96 h; n = 6. How it is done:
The usage of human triple-negative breast cancer tissue was approved by the Indiana University Institutional Review Board (1911155674), and the tissues were received from the Indiana University Simon Comprehensive Cancer Center Tissue Procurement Core. Freshly isolated breast cancer tissue (~10 mg) was manually fragmented with a scalpel into small pieces (0.5~0.8 mm in length), which were grown in DMEM with 10% FBS and antibiotics for a day. […] The culture medium, consisting of these agents, was applied for 4 days, and a change in the fragment size was determined.

Like-named read-outs stand apart in the source and are kept apart here.

As to “EEAESTLQSFR [P14, ACP candidate … from Vim]”, the figures for the MTT-based relative viability in the test with MDA-MB-231 cells and with MDA-MB-436 cells were 0.88 and 0.84, respectively.
On to “LGDLYEEEMR [P17, ACP candidate … from Vim]”, for which the MTT-based relative viability in the test with MDA-MB-231 cells is reported as 1.10; in the test with MDA-MB-436 cells, 0.99.
For “QITLNDLPVGR [P20, ACP candidate … from Prdx4]”, the MTT-based relative viability in the test with MDA-MB-231 cells was determined as 0.87; with MDA-MB-436 cells it was 0.86.
Taken in the same sequence, the figures for “NDLAVVDVR [P13, ACP candidate … from Ncl]” were 0.98 and 0.95.
Take “YEWDVAEAR [P16, ACP candidate … from Eef2]”: the MTT-based relative viability is given as 0.93 in the test on MDA-MB-231 cells and 0.96 in the test on MDA-MB-436 cells.
Regarding “TDYMVGSYGPR-NH2 [P18-NH2, C-terminal-amidated P18, …-NH2]”, the “tumor-suppressor effect compared with the original P18 (MTT)” value (in the test on MCF7 cells; in the test with MDA-MB-231 cells; in the test on MDA-MB-436 cells; in the test on PANC1 PDAC cells; in the test with PANC198 PDAC cells; in test [1]) was “did not improve the tumor-suppressor effect” in each case. Further, the “tumor-suppressor effect compared with the original P18 (MTT)” value in test [2] is “did not improve the tumor-suppressor effect”.
For “VNFTVDQIR [P12, ACP candidate … from Eef2]”, the MTT-based relative viability came to 0.94 with MDA-MB-231 cells and 0.92 in the test on MDA-MB-436 cells.
A word on the IC50: it is the concentration that gives 50% inhibition. Turning to `N.N.[Cl][Pt][Cl]` [Cisplatin, reference compound], the IC50 in the test with MDA-MB-231 cells (drug alone, read-out: IC50, MTT-based viability) is 1200 nM; with MDA-MB-231 cells (drug in combination with P18, read-out: IC50, MTT-based viability, with application of P18) it was 500 nM. Besides, the “size of cancer tissues, drug with concurrent P18 versus drug alone” value in test [3] is listed as “more pronounced reduction in the size”.
On to “FEELNADLFR [P21, ACP candidate … from Hspa8]”, for which the MTT-based relative viability in the test on MDA-MB-231 cells is 0.89; with MDA-MB-436 cells, 0.92.
Taken in the same sequence, the figures for “FEDENFILK [P11, ACP candidate … from Ppia]” were 0.96 and 0.95.
Taken in the same sequence, the figures for “IDTIEIITDR [P15, ACP candidate … from Hnrn]” were 0.93 and 0.95.
Regarding “IEVIEIMTDR [P22, ACP candidate … from Hnrnpa1]”, the MTT-based relative viability was 0.86 in the test with MDA-MB-231 cells and 0.88 in the test on MDA-MB-436 cells.
As to `CC(=O)O[C@H]1C(=O)[C@@]2(C)[C@H]([C@H](OC(=O)c3ccccc3)[C@]3(O)C[C@H](OC(=O)[C@H](O)[C@@H](NC(=O)c4ccccc4)c4ccccc4)C(C)=C1C3(C)C)[C@]1(OC(C)=O)CO[C@@H]1C[C@@H]2O` [Taxol, reference compound], the IC50 with MDA-MB-231 cells (Homo sapiens, drug alone, read-out: IC50, MTT-based viability) stood at 700 nM; with MDA-MB-231 cells (Homo sapiens, drug in combination with P18, read-out: IC50, MTT-based viability, with application of P18), 300 nM. Besides, in test [3], the “size of cancer tissues, drug with concurrent P18 versus drug alone” value is on record as “more pronounced reduction in the size”.
For the molecule “DQVANSAFVER [P19, ACP candidate … from Hsp90aa1]”, the figures for the MTT-based relative viability in the test with MDA-MB-231 cells and in the test with MDA-MB-436 cells were 1.09 and 0.96, respectively.

B1: Arhgdia: Rho GDP dissociation inhibitor alpha; human recombinant ARHGDIA protein (MyBioSource) (protein, UniProt P52565 2-204, looked up)
Rho GDP-dissociation …: AEQEPTAEQLAQIAAENEEDEHSVNYKPPAQKSIQEIQELDKDDESLRKYKEALLGRVAVSADPNVPNVVVTGLTLVCSSAPGPLELDLTGDLESFKKQSFVLKEGVEYRIKISFRVNREIVSGMKYIQHTYRKGVKIDKTDYMVGSYGPRAEEYEFLTPVEEAPKGMLARGSYSIKSRFTDDDKTDHLSWEWNLTIKKDWKD
Take B1: the MTT-based cell viability result in the test on MDA-MB-231 cells (5 μg/mL of recombinant ARHGDIA protein) is “significant reduction”.
